PubChem BioAssay (NCI)
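96-well plates; 48 h exposure; 5 concentrations. Endpoints by linear interpolation between flanking doses. Not reached: highest tested concentration assigned. The concentration for full growth arrest is given as TGI.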

Tests used:
Assay in all cases: NCI tumour cell line growth inhibition, 48 h
NCI-H226 lung = system: NCI-H226 lung
BT-549 breast = system: BT-549 breast
U251 CNS = system: U251 CNS
MDA-N = system: MDA-N
SW-620 colon = system: SW-620 colon
NCI-H522 lung = system: NCI-H522 lung
A549 NSCLC = system: A549 NSCLC
OVCAR-5 ovarian = system: OVCAR-5 ovarian
SF-295 CNS = system: SF-295 CNS
NCI-H23 lung = system: NCI-H23 lung
SK-MEL-28 melanoma = system: SK-MEL-28 melanoma
LOX IMVI melanoma = system: LOX IMVI melanoma
CCRF-CEM leukemia = system: CCRF-CEM leukemia
MALME-3M melanoma = system: MALME-3M melanoma
HCC-2998 colon = system: HCC-2998 colon
SF-268 CNS = system: SF-268 CNS
SK-MEL-5 melanoma = system: SK-MEL-5 melanoma
KM12 colon = system: KM12 colon
SNB-19 CNS = system: SNB-19 CNS
A498 renal = system: A498 renal
IGROV1 ovarian = system: IGROV1 ovarian
RXF 393 renal = system: RXF 393 renal
OVCAR-3 ovarian = system: OVCAR-3 ovarian
786-0 renal = system: 786-0 renal
OVCAR-8 ovarian = system: OVCAR-8 ovarian
ACHN renal = system: ACHN renal
M14 melanoma = system: M14 melanoma
HCT-15 colon = system: HCT-15 colon
MCF7 breast = system: MCF7 breast
K-562 leukemia = system: K-562 leukemia
RPMI-8226 leukemia = system: RPMI-8226 leukemia
MDA-MB-231 breast = system: MDA-MB-231 breast
SR leukemia = system: SR leukemia
SF-539 CNS = system: SF-539 CNS
HCT-116 colon = system: HCT-116 colon
UACC-257 melanoma = system: UACC-257 melanoma
COLO 205 colon = system: COLO 205 colon
HOP-62 NSCLC = system: HOP-62 NSCLC
SNB-75 CNS = system: SNB-75 CNS
OVCAR-4 ovarian = system: OVCAR-4 ovarian
MOLT-4 leukemia = system: MOLT-4 leukemia
PC-3 prostate = system: PC-3 prostate
TK-10 renal = system: TK-10 renal
UACC-62 melanoma = system: UACC-62 melanoma
UO-31 renal = system: UO-31 renal
SN12C renal = system: SN12C renal
MDA-MB-435 = system: MDA-MB-435
DU-145 prostate = system: DU-145 prostate
EKVX NSCLC = system: EKVX NSCLC
SK-OV-3 ovarian = system: SK-OV-3 ovarian
HT29 colon = system: HT29 colon
CAKI-1 renal = system: CAKI-1 renal
NCI-H460 lung = system: NCI-H460 lung
NCI/ADR-RES ovarian = system: NCI/ADR-RES ovarian
SK-MEL-2 melanoma = system: SK-MEL-2 melanoma

Measured: TGI

CC1(C)OCC(C2OC(OC(=O)c3ccc(C(F)(F)F)cc3)C3OC(C)(C)OC23)O1 (stereo not given)
> 77.5 µM: NCI-H226 lung | BT-549 breast | U251 CNS | MDA-N | SW-620 colon | NCI-H522 lung | A549 NSCLC | OVCAR-5 ovarian | SF-295 CNS | NCI-H23 lung | SK-MEL-28 melanoma | LOX IMVI melanoma | CCRF-CEM leukemia | MALME-3M melanoma | HCC-2998 colon | SF-268 CNS | SK-MEL-5 melanoma | KM12 colon | SNB-19 CNS | A498 renal | IGROV1 ovarian | RXF 393 renal | OVCAR-3 ovarian | 786-0 renal | OVCAR-8 ovarian | ACHN renal | M14 melanoma | HCT-15 colon | MCF7 breast | K-562 leukemia | RPMI-8226 leukemia | MDA-MB-231 breast | SR leukemia | SF-539 CNS | HCT-116 colon | UACC-257 melanoma | COLO 205 colon | HOP-62 NSCLC | SNB-75 CNS | OVCAR-4 ovarian | MOLT-4 leukemia | PC-3 prostate | TK-10 renal | UACC-62 melanoma | UO-31 renal | SN12C renal | MDA-MB-435 | DU-145 prostate | EKVX NSCLC | SK-OV-3 ovarian | HT29 colon | CAKI-1 renal | NCI-H460 lung | NCI/ADR-RES ovarian | SK-MEL-2 melanoma
